Test results: ChEMBL document CHEMBL5543097, “Synthesis and structure-activity relationships of novel 14-membered 2-fluoro ketolides with structural modification at the C11 position” (Eur J Med Chem, 2024)
Converted amounts (≈) assume the structure as drawn.

What was measured:
[1] = test system: Staphylococcus epidermidis; test: Antibacterial activity against erythromycin-resistant Staphylococcus epidermidis 19-5 assessed as inhibition of visible bacterial growth incubated for 18 hrs by broth microdilution method; type: functional
Moraxella catarrhalis [2] = test: Antibacterial activity against Moraxella catarrhalis BCA 19-31 assessed as inhibition of bacterial growth incubated for 24 hrs by CLSI based broth microdilution method; type: functional; conditions: BCA 19-31, 24 h
[3] = test system: Staphylococcus epidermidis; test: Antibacterial activity against erythromycin-resistant Staphylococcus epidermidis 19-9 assessed as inhibition of visible bacterial growth incubated for 18 hrs by broth microdilution method; type: functional
[4] = test system: Staphylococcus epidermidis; test: Antibacterial activity against erythromycin-resistant Staphylococcus epidermidis 19-8 assessed as inhibition of visible bacterial growth incubated for 18 hrs by broth microdilution method; type: functional
Haemophilus influenzae [5] = test: Antibacterial activity against Haemophilus influenzae HIN 19-18 assessed as inhibition of bacterial growth incubated for 20 to 24 hrs by CLSI based broth microdilution method; type: functional; conditions: HIN 19-18, time 20-24 hrs
Moraxella catarrhalis [6] = test: Antibacterial activity against Moraxella catarrhalis BCA 19-5 assessed as inhibition of bacterial growth incubated for 24 hrs by CLSI based broth microdilution method; type: functional; conditions: Moraxella catarrhalis, BCA 19-5, 24 h, read-out: MIC
[7] = Cytotoxicity against mouse AML12 cells assessed as reduction in cell viability incubated for 48 hrs by MTT assay; type: toxicity, cell-based
Streptococcus pyogenes = test: Antibacterial activity against erythromycin-resistant Streptococcus pyogenes ATCC 19615 assessed as inhibition of visible bacterial growth incubated for 18 hrs by broth microdilution method; type: functional
[8] = test system: Staphylococcus epidermidis; test: Antibacterial activity against erythromycin-resistant Staphylococcus epidermidis 19-6 assessed as inhibition of visible bacterial growth incubated for 18 hrs by broth microdilution method; type: functional
[9] = test system: Staphylococcus epidermidis; test: Antibacterial activity against erythromycin-resistant Staphylococcus epidermidis 19-11 assessed as inhibition of visible bacterial growth incubated for 18 hrs by broth microdilution method; type: functional
Streptococcus agalactiae [10] = test: Antibacterial activity against erythromycin-resistant Streptococcus agalactiae 19-8 assessed as inhibition of visible bacterial growth incubated for 18 hrs by broth microdilution method; type: functional
Streptococcus pneumoniae [11] = test: Antibacterial activity against erythromycin-resistant Streptococcus pneumoniae SPN19-14 assessed as inhibition of visible bacterial growth incubated for 18 hrs by broth microdilution method; type: functional
Streptococcus pneumoniae [12] = test: Antibacterial activity against erythromycin-resistant Streptococcus pneumoniae SPN19-8 assessed as inhibition of visible bacterial growth incubated for 18 hrs by broth microdilution method; type: functional
Streptococcus pneumoniae [13] = test: Antibacterial activity against erythromycin-resistant Streptococcus pneumoniae SPN19-13 assessed as inhibition of visible bacterial growth incubated for 18 hrs by broth microdilution method; type: functional
[14] = test system: Staphylococcus epidermidis; test: Antibacterial activity against erythromycin-resistant Staphylococcus epidermidis 19-4 assessed as inhibition of visible bacterial growth incubated for 18 hrs by broth microdilution method; type: functional
Streptococcus agalactiae [15] = test: Antibacterial activity against erythromycin-resistant Streptococcus agalactiae 19-9 assessed as inhibition of visible bacterial growth incubated for 18 hrs by broth microdilution method; type: functional
Haemophilus influenzae [16] = test: Antibacterial activity against Haemophilus influenzae HIN 19-15 assessed as inhibition of bacterial growth incubated for 20 to 24 hrs by CLSI based broth microdilution method; type: functional; conditions: time 20-24 hrs
Moraxella catarrhalis [17] = test: Antibacterial activity against Moraxella catarrhalis BCA 19-6 assessed as inhibition of bacterial growth incubated for 24 hrs by CLSI based broth microdilution method; type: functional; conditions: Moraxella catarrhalis, BCA 19-6, 24 h, read-out: MIC
Haemophilus influenzae [18] = test: Antibacterial activity against Haemophilus influenzae HIN 20-18 assessed as inhibition of bacterial growth incubated for 20 to 24 hrs by CLSI based broth microdilution method; type: functional; conditions: time 20-24 hrs

CC[C@H]1OC(=O)[C@@](C)(F)C(=O)[C@H](C)[C@@H](O[C@@H]2O[C@H](C)C[C@H](N(C)C)[C@H]2O)[C@](C)(OC)C[C@@H](C)C(=O)[C@H](C)[C@H]2N(CCCOC(=O)Nc3cc(C)cc(C)c3)C(=O)O[C@]12C
MIC [1]: < 0.03 µg/mL
MIC (Moraxella catarrhalis [2]): 0.5 µg/mL (≈ 0.598 µM)
MIC [3]: 0.5 µg/mL (≈ 0.598 µM)
MIC [4]: 0.25 µg/mL (≈ 0.299 µM)
MIC (Haemophilus influenzae [5]): 16 µg/mL (≈ 19.1 µM)
MIC (Moraxella catarrhalis [6]): 1 µg/mL (≈ 1.2 µM)
CC50 at 48 h [7]: 25.5 µM
MIC (Streptococcus pyogenes): < 0.03 µg/mL
MIC [8]: 0.5 µg/mL (≈ 0.598 µM)
MIC [9]: 0.25 µg/mL (≈ 0.299 µM)
MIC (Streptococcus agalactiae [10]): 0.06 µg/mL (≈ 0.0718 µM)
MIC (Streptococcus pneumoniae [11]): 1 µg/mL (≈ 1.2 µM)
MIC (Streptococcus pneumoniae [12]): 0.5 µg/mL (≈ 0.598 µM)
MIC (Streptococcus pneumoniae [13]): 0.5 µg/mL (≈ 0.598 µM)
MIC [14]: < 0.25 µg/mL
MIC (Streptococcus agalactiae [15]): 4 µg/mL (≈ 4.78 µM)
MIC (Haemophilus influenzae [16]): 16 µg/mL (≈ 19.1 µM)
MIC (Moraxella catarrhalis [17]): 1 µg/mL (≈ 1.2 µM)

CCc1ccc(NC(=O)OCCCN2C(=O)O[C@]3(C)[C@@H](CC)OC(=O)[C@@](C)(F)C(=O)[C@H](C)[C@@H](O[C@@H]4O[C@H](C)C[C@H](N(C)C)[C@H]4O)[C@](C)(OC)C[C@@H](C)C(=O)[C@H](C)[C@@H]23)cc1
MIC [1]: < 0.03 µg/mL
MIC [3]: 0.125 µg/mL (≈ 0.15 µM)
MIC [4]: < 0.03 µg/mL
CC50 at 48 h [7]: 25.6 µM
MIC (Streptococcus pyogenes): < 0.03 µg/mL
MIC [8]: < 0.03 µg/mL
MIC [9]: 0.03 µg/mL (≈ 0.0359 µM)
MIC (Streptococcus agalactiae [10]): < 0.03 µg/mL
MIC (Streptococcus pneumoniae [11]): < 0.03 µg/mL
MIC (Streptococcus pneumoniae [12]): 0.125 µg/mL (≈ 0.15 µM)
MIC (Streptococcus pneumoniae [13]): 0.06 µg/mL (≈ 0.0718 µM)
MIC [14]: < 0.03 µg/mL
MIC (Streptococcus agalactiae [15]): 0.5 µg/mL (≈ 0.598 µM)

CC[C@H]1OC(=O)[C@H](C)C(=O)[C@H](C)[C@@H](O[C@@H]2O[C@H](C)C[C@H](N(C)C)[C@H]2O)[C@](C)(OC)C[C@@H](C)C(=O)[C@H](C)[C@H]2N(CCCOC(=O)Nc3cccc(C)c3)C(=O)O[C@]12C
MIC [1]: 0.5 µg/mL (≈ 0.622 µM)
MIC (Moraxella catarrhalis [2]): 1 µg/mL (≈ 1.24 µM)
MIC [3]: 1 µg/mL (≈ 1.24 µM)
MIC [4]: 0.5 µg/mL (≈ 0.622 µM)
MIC (Haemophilus influenzae [5]): 32 µg/mL (≈ 39.8 µM)
MIC (Moraxella catarrhalis [6]): 0.5 µg/mL (≈ 0.622 µM)
CC50 at 48 h [7]: 71.7 µM
MIC (Streptococcus pyogenes): < 0.03 µg/mL
MIC [8]: 0.5 µg/mL (≈ 0.622 µM)
MIC [9]: 0.5 µg/mL (≈ 0.622 µM)
MIC (Streptococcus agalactiae [10]): < 0.03 µg/mL
MIC (Streptococcus pneumoniae [11]): 1 µg/mL (≈ 1.24 µM)
MIC (Streptococcus pneumoniae [12]): 1 µg/mL (≈ 1.24 µM)
MIC (Streptococcus pneumoniae [13]): 1 µg/mL (≈ 1.24 µM)
MIC [14]: 2 µg/mL (≈ 2.49 µM)
MIC (Streptococcus agalactiae [15]): 0.5 µg/mL (≈ 0.622 µM)
MIC (Haemophilus influenzae [16]): 32 µg/mL (≈ 39.8 µM)
MIC (Moraxella catarrhalis [17]): 0.5 µg/mL (≈ 0.622 µM)

CC[C@H]1OC(=O)[C@@](C)(F)C(=O)[C@H](C)[C@@H](O[C@@H]2O[C@H](C)C[C@H](N(C)C)[C@H]2O)[C@](C)(OC)C[C@@H](C)C(=O)[C@H](C)[C@H]2N(CCCOC(=O)Nc3ccc(SC)cc3)C(=O)O[C@]12C
MIC [1]: 0.125 µg/mL (≈ 0.146 µM)
MIC (Moraxella catarrhalis [2]): 0.125 µg/mL (≈ 0.146 µM)
MIC [3]: 0.25 µg/mL (≈ 0.293 µM)
MIC [4]: 0.125 µg/mL (≈ 0.146 µM)
MIC (Haemophilus influenzae [5]): 8 µg/mL (≈ 9.37 µM)
MIC (Moraxella catarrhalis [6]): 0.5 µg/mL (≈ 0.585 µM)
CC50 at 48 h [7]: 76.1 µM
MIC (Streptococcus pyogenes): < 0.03 µg/mL
MIC [8]: 0.125 µg/mL (≈ 0.146 µM)
MIC [9]: 0.125 µg/mL (≈ 0.146 µM)
MIC (Streptococcus agalactiae [10]): 0.03 µg/mL (≈ 0.0351 µM)
MIC (Streptococcus pneumoniae [11]): 0.25 µg/mL (≈ 0.293 µM)
MIC (Streptococcus pneumoniae [12]): 1 µg/mL (≈ 1.17 µM)
MIC (Streptococcus pneumoniae [13]): 0.25 µg/mL (≈ 0.293 µM)
MIC [14]: 0.125 µg/mL (≈ 0.146 µM)
MIC (Streptococcus agalactiae [15]): 16 µg/mL (≈ 18.7 µM)
MIC (Haemophilus influenzae [16]): 16 µg/mL (≈ 18.7 µM)
MIC (Moraxella catarrhalis [17]): 0.5 µg/mL (≈ 0.585 µM)

CC[C@H]1OC(=O)[C@@](C)(F)C(=O)[C@H](C)[C@@H](O[C@@H]2O[C@H](C)C[C@H](N(C)C)[C@H]2O)[C@](C)(OC)C[C@@H](C)C(=O)[C@H](C)[C@H]2N(CCCOC(=O)Nc3cccc(Cl)c3)C(=O)O[C@]12C
MIC [1]: < 0.03 µg/mL
MIC [3]: 0.125 µg/mL (≈ 0.148 µM)
MIC [4]: < 0.03 µg/mL
MIC (Haemophilus influenzae [5]): 4 µg/mL (≈ 4.75 µM)
MIC (Moraxella catarrhalis [6]): 0.125 µg/mL (≈ 0.148 µM)
CC50 at 48 h [7]: 43.3 µM
MIC (Streptococcus pyogenes): < 0.03 µg/mL
MIC [8]: < 0.03 µg/mL
MIC [9]: < 0.03 µg/mL
MIC (Streptococcus pneumoniae [11]): 0.125 µg/mL (≈ 0.148 µM)
MIC (Streptococcus pneumoniae [12]): 0.125 µg/mL (≈ 0.148 µM)
MIC (Streptococcus pneumoniae [13]): 0.125 µg/mL (≈ 0.148 µM)
MIC (Haemophilus influenzae [18]): 16 µg/mL (≈ 19 µM)
MIC [14]: 0.03 µg/mL (≈ 0.0356 µM)
MIC (Streptococcus agalactiae [15]): 0.5 µg/mL (≈ 0.594 µM)
MIC (Haemophilus influenzae [16]): 8 µg/mL (≈ 9.5 µM)
MIC (Moraxella catarrhalis [17]): 2.25 µg/mL (≈ 2.67 µM)
